{"source": "patent EP0783507B1", "about": "“COMPOUNDS USEFUL AS ANTIPROLIFERATIVE AGENTS AND GARFT INHIBITORS” (AGOURON PHARMACEUTICALS, INC., priority 1994, dated 1996)", "key": {"[1]": {"target": "catalytic domain of the human GARFT (Homo sapiens, UniProt P22102)", "sequence (P22102 810-1010 limits assumed)": "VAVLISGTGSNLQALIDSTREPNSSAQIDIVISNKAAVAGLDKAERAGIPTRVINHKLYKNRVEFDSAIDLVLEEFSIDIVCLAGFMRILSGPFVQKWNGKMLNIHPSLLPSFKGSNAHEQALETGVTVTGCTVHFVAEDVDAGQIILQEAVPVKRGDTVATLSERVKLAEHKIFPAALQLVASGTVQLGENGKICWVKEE", "assay": "biochemical", "procedure": "The GAR-transformylase (GARFT) assay method of Young et al., Biochemistry 23 (1984), 3979-3986, was modified and used as described below. Reactions mixtures contained the catalytic domain of the human GARFT, 0-250 nM of Compound 1, 20 µM glycinamide ribonucleotide (GAR), 10 or 20 µM N^10-formyl-5,8-dideazafolate (FDDF), 50 mM HEPES-KOH, pH 7.5, and 50 mM KCl. The reaction was initiated with the addition of enzyme to a final concentration of 11 nM, followed by monitoring of the increase in absorbance at 294 nm at 20°C (e294 = 18.9 mM^-1 cm^-1).\nThe GARFT inhibition constant (Ki) was determined from the dependence of the steady-state catalytic rate on inhibitor and substrate concentration. […] The Michaelis constant for FDDF, Km, was determined independently by the dependence of the catalytic rate on FDDF concentration. Data for both the Km and Ki determinations were fitted by nonlinear methods to the Michaelis equation, or the Michaelis equation for competitive inhibition, as appropriate. Data resulting from tight-binding inhibition was analyzed, and Ki determined, by fitting the data to the tight-binding equation of Morrison, Biochem Biophys Acta 185 (1969), 269-286, by nonlinear methods."}, "CCRF-CEM": {"test_system": "CCRF-CEM", "assay": "In vitro cell growth inhibition (MTT, modified Mosmann method), CCRF-CEM", "format": "cell-based", "conditions": "Homo sapiens, continuous (72-hour) exposure per table title, Table 2 gives 5 days incubation, mean IC50, read-out: IC50 Cell CultureCCRF-CEM", "experimental": "(§1) All cultures were maintained at 37°C, 5% air-CO2 in a humidified incubator.\n(§2) Stock solutions of the inhibitors were prepared in 10 mM sodium bicarbonate in water and stored in 1 ml aliquots at - 20°C for cell culture experiments. Cell growth inhibition was measured by a modification of the method of Mosmann, J. Immunol. Methods 65 (1983), 55-63.\n(§3) Mid-log phase cells of each cell line were diluted to 18,500 cells/ml in fresh RPMI growth medium (Mediatech, Washington, DC) supplemented with dialyzed fetal calf serum (Hyclone Laboratories Inc., Logan, UT) and then aliquotted into columns 2 through 12 of 96-well microtiter plates. Column 1 was filled with the same volume ([…]) of fresh medium, without cells, for use as a blank. The plates were then placed in a 37°C, 5% air-CO2 incubator. After 1 to 4 hours, plates were removed from the incubator followed by addition of Compound 1 at 10 x final concentration, […] in binary dilutions, to columns 12 to 4. […] The extent of metabolized MTT was measured spectrophotometrically at 540 nm on a Molecular Devices Vmax kinetic microplate reader. The concentration of drug required to reduce cell growth by 50% as measured by MTT metabolism was determined by interpolation between the O.D. (minus blank) immediately above and below 50% of control O.D. (minus blank)."}, "[2]": {"test_system": "C3H/BA mammary adenocarcinoma", "format": "in vivo", "conditions": "tumor mass vs control on day 14", "experimental": "(§4) On day zero, 2 mm^2 trocar fragments of C3H/BA mammary adenocarcinoma were implanted subcutaneously in the axillary region into groups of six C3H/He female mice. Starting on day 1, the test compound was administered intraperitoneally in 40% Encapsin given once daily for nine days. Control animals received identical treatment without test compound. The percentage of inhibition was calculated by comparing the mass of the control tumors (receiving diluent only) on day 14 to those of animals receiving test compound."}, "L1210": {"test_system": "L1210", "assay": "In vitro cell growth inhibition (MTT, modified Mosmann method), L1210", "format": "cell-based", "conditions": "Mus musculus, continuous (72-hour) exposure, mean IC50, read-out: IC50 Cell Culture L1210", "experimental": "as §1, §2, §3"}, "6C3HED lymphosarcoma": {"test_system": "6C3HED lymphosarcoma", "format": "in vivo", "conditions": "tumor mass vs control on day 11", "experimental": "as §4, with “6C3HED lymphosarcoma” for “C3H/BA mammary adenocarcinoma”, “percentage” for “percentage of”, “inhibition given in Table 4 below” for “inhibition”, “11” for “14”"}}, "note": "Like-named read-outs stand apart in the source and are kept apart here.", "data": [{"compound": "Nc1nc2c(c(=O)[nH]1)SC(CCc1ccc(C(=O)N[C@@H](CCC(=O)O)C(=O)O)s1)CN2", "note": "(stereo partly drawn) [Compound 1, 4-[2-(2-Amino-4-oxo-4,6,7,8-tetrahydro-3H-pyrimido[5,4-6][1,4]thiazin-6-yl)-ethyl]-2,5-thienoylamino-L-glutamic acid]", "values": [{"measurement": "Ki", "setting": "[1]", "value": 4.5, "unit": "nM"}, {"measurement": "IC50", "setting": "CCRF-CEM", "value": 4.3, "unit": "nM"}, {"measurement": "% Inhibition", "setting": "[2]; 5 mg/kg intraperitoneally in 40% Encapsin once daily for nine days", "value": 16, "unit": "%"}, {"measurement": "% Inhibition", "setting": "[2]; 10 mg/kg intraperitoneally in 40% Encapsin once daily for nine days", "value": 84, "unit": "%"}, {"measurement": "% Inhibition", "setting": "[2]; 20 mg/kg intraperitoneally in 40% Encapsin once daily for nine days", "value": 100, "unit": "%"}, {"measurement": "IC50", "setting": "L1210", "value": 16, "unit": "nM"}, {"measurement": "% Inhibition", "setting": "6C3HED lymphosarcoma; 12.5 mg/kg intraperitoneally in 40% Encapsin once daily for nine days", "value": 100, "unit": "%"}, {"measurement": "% Inhibition", "setting": "6C3HED lymphosarcoma; 25 mg/kg intraperitoneally in 40% Encapsin once daily for nine days", "value": 100, "unit": "%"}, {"measurement": "% Inhibition", "setting": "6C3HED lymphosarcoma; 50 mg/kg intraperitoneally in 40% Encapsin once daily for nine days", "value": "toxic"}]}]}
